This data set in a line: gradient 5% acetonitrile 3 min, to 50% in 2 min, to 85% in 15 min, held 3 min, 100 µL/min. The settings on record: column: Zorbax Extend-C18 2.1 x 50 mm; eluents: water / acetonitrile, 0.1% formic acid. An outline of the steps:
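Mixtures of ~100 pure standards were chromatographed on a Zorbax Extend-C18 column (2.1 × 50 mm, 1.8 μm) at 100 μL/min using water and acetonitrile, each with 0.1% formic acid. Detection used a quadrupole time-of-flight mass spectrometer in positive and negative ionization mode, and data collection spanned 3 months. Retention time was obtained from adduct peaks picked computationally and each checked manually.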
As for `COc1ccc(OC)c(CNS(=O)(=O)c2cc(-c3nc(C)c(C)s3)sc2C)c1`, the RP-LC retention time was found to be 1030 s. The same measure for `Cc1ccc(-n2nc3c(N4CCN(C(=O)NCC5CCCO5)CC4)nnc(C)c3c2C)cc1` (centres undefined): 590 s; for `CC(NC(=O)c1ccc(CN2CCN(Cc3ccccc3)C(=O)C2=O)cc1)c1ccccc1` (centres undefined): 812 s; for `COCCN1C(=O)[C@H]2CN(S(=O)(=O)c3ccccc3)C[C@H]2C1=O`: 712 s. Compound `O=C(Cn1nc2c3ccccc3ncn2c1=O)Nc1ccc2c(c1)OCO2` yielded an RP-LC retention time of 665 s. The same measure for `Cc1cc(C)c(C(=O)N2CCC(CC(=O)NCCCN3CCCC3)CC2)[nH]1`: 586 s; for `CCN(CC)c1ccc(NC(=O)C2CCCN(S(=O)(=O)c3cn(C(C)C)cn3)C2)c(C)c1` (centres undefined): 622 s; for `Cc1nc(-c2cccnc2)nc2c1CCC(=O)N2Cc1ccccc1`: 766 s. The compound `Cc1ccc(CNC(=O)c2c(C)sc3ccn(CC(C)C)c(=O)c23)cc1` yielded an RP-LC retention time of 999 s. For the compound `COc1ccccc1C1=NN(C(C)=O)C(C)(c2cccc(OC(C)=O)c2)O1` (centres undefined), the RP-LC retention time was 852 s. The compound `Cc1ccccc1NC(=O)N1C[C@@H]2CN(S(=O)(=O)c3ccc(F)cc3)C[C@H](C1)O2` registered an RP-LC retention time of 786 s.

As to `O=C(NCc1cccs1)C(=O)Nc1ccncc1`, the RP-LC retention time is 548 s. The same measure for `COc1ccc(C(=O)CSc2nnnn2-c2cccc(C)c2)cc1`: 941 s.

Take `CCCN(C)CC1(O)CCC2(CCN(C(=O)C3CCCC3)CC2)CC1`: the RP-LC retention time is 584 s.

For `Cn1cc(-c2cc3n(n2)CCC(=O)N3CC(=O)NCCCN2CCOCC2)c2ccccc21`, the RP-LC retention time came out at 603 s. Take `CCn1cc(S(=O)(=O)Nc2cc(C)ccc2C)c2cccnc21`: the RP-LC retention time stood at 892 s. With `N#Cc1cccc(NC(=O)Cn2nc3n(c2=O)CCCCC3)c1`, the RP-LC retention time came to 674 s. Take `Cc1ccccc1N1CCN(c2nccn3nc(-c4ccccc4)cc23)CC1`: the RP-LC retention time is 1300 s. For the compound `Cc1cc(Cl)ccc1NC(=O)Cc1nnc(-c2ccc3ncccc3c2)o1`, the RP-LC retention time came out at 766 s. `CC(=O)Nc1ccc(-n2cnc(C(=O)N3CCC(C(N)=O)CC3)c2)nc1`: the RP-LC retention time is 564 s. The same measure for `CCNc1nc(C)cc(N2CCN(S(=O)(=O)c3ccc(C(F)(F)F)cc3)CC2)n1`: 754 s; for `CC1CCCN(CC2CCN(S(=O)(=O)Cc3ccc(Cl)cc3)CC2)C1` (centres undefined): 690 s; for `CCOC(=O)c1nc(N(CC)c2cc(C)ccc2C)c2ccccc2n1`: 1130 s. The figure for `CCCNC(=O)CN1C(=O)C2CCCCN2c2ccc(S(=O)(=O)N(CC)CC)cc21` (centres undefined) is 862 s. The same measure for `Cc1nc(-c2ccncc2)nc2c1CC(=O)N2C1CCCC1`: 703 s.

For `CC1=C(c2ccc(C)cc2)S(=O)(=O)N=C1N1CCCN(C(=O)C2CCCO2)CC1` (centres undefined), the RP-LC retention time worked out at 733 s. The same measure for `CCNC(=O)C1CCN(C(=O)Nc2ccc(NC(=O)Nc3ccccc3)cc2)CC1`: 658 s; for `COC(=O)N1CCN(C(=O)Cc2ccc(Cl)c(Cl)c2)C(CN2CCCC2)C1` (centres undefined): 688 s. For the compound `Cc1ccc2c(Nc3ccc(C)c(C)c3)c(C(=O)N3CCOCC3)cnc2n1`, the RP-LC retention time came to 593 s. The same measure for `COCCN1C(=O)c2ccccc2C(C(=O)Nc2ccc3[nH]ccc3c2)C12CCCC2` (centres undefined): 814 s; for `Cc1cc(C)cc(N2C(=O)CN(CC(C)C)[C@H]3CS(=O)(=O)C[C@H]32)c1`: 619 s; for `CN1CCCc2ccc(NC(=O)CC3CCCN(c4cn[nH]c(=O)c4)C3)cc21` (centres undefined): 638 s. The same measure for `O=C(NCc1csc(-c2cccs2)n1)C1CCN(C(=O)c2cccc(F)c2)CC1`: 772 s; for `Cc1cccc(NC(=O)Cc2c(C)n(C)c3nc(-c4ccccc4)nn3c2=O)c1`: 824 s.

With `Cc1ccc(Cn2c(N3CCC(C(=O)NC4CC4)CC3)nc3ccsc3c2=O)cc1`, the RP-LC retention time was 783 s. In turn, `CCNC(=O)CN1CCN(Cc2ccccc2F)C1=O` yielded an RP-LC retention time of 658 s. The figure for `COc1ccc(NC(=O)Nc2c(-c3ccc(C)cc3)nc3ccccn23)cc1OC` is 927 s; for `Cc1ccc(S(=O)(=O)CC(=O)Nc2nc(-c3ccccc3)cs2)cc1` it is 933 s; for `CCCCc1ccc(NC(=O)Cn2cnc3nc(N4CCCC(C(=O)NC)C4)sc3c2=O)cc1` (centres undefined) it is 759 s.

`COC(=O)N1CCc2ccc(F)cc2C1C(=O)Nc1ncc(C)s1` (centres undefined): the RP-LC retention time is 788 s.

`O=C(Nc1nccs1)C1CCN(C(=O)c2ccccn2)CC1` showed an RP-LC retention time of 555 s.

For `O=C1NC(C(=O)NCC2CCCCC2)Cn2cccc21` (centres undefined), the RP-LC retention time worked out at 681 s. The figure for `CCN1CCCn2cc(S(=O)(=O)N3CCN(c4ccccc4F)CC3)cc2C1=O` is 829 s; for `CCN1CCN(C(=O)C2CCN(S(=O)(=O)c3cc(-c4noc(C)n4)cs3)CC2)CC1` it is 615 s. The same measure for `CCN1C(=O)c2cccnc2Sc2cc(NC(=O)COc3cccc(C)c3)ccc21`: 931 s. The same measure for `CCS(=O)(=O)N1CCC([C@@H](C)n2c(C)c(C(=O)NCc3c(OC)cc(C)[nH]c3=O)c3ccccc32)CC1`: 777 s. Compound `COc1ccc(-c2noc(C3CCCN3C(=O)c3ccc(NC(C)=O)cc3)n2)cc1` (centres undefined) displayed an RP-LC retention time of 752 s. The same measure for `Cc1ccc2cccc(OC(=O)N3CCCCCC3)c2n1`: 789 s.

Turning to `CCNC(=O)[C@H]1O[C@@H](n2cnc3c(N)nc(NCCc4ccc(CCC(=O)O)cc4)nc32)C(O)[C@H]1O` (some centres undefined), the RP-LC retention time stood at 503 s. The same measure for `CCOc1ccc(NC(=O)C2CC(=O)N(c3n[nH]c4cccc(F)c34)C2)cc1` (centres undefined): 744 s; for `CCOC(=O)C1CCN(c2ncc(C(=O)Nc3ccccc3)c(N)n2)CC1`: 705 s. Regarding `Cc1cccc(-c2nnc(Cc3nc(-c4ccc5c(c4)OCO5)no3)o2)c1`, the RP-LC retention time was found to be 1010 s. The same measure for `CCC(=O)Nc1nc(-c2ccccc2)cs1`: 836 s; for `O=C(NCC1CCN(c2ncccn2)CC1)c1cccc(C(F)(F)F)c1`: 749 s; for `COc1cc(=O)c(C(=O)NC(C)C)nn1-c1ccc(F)cc1`: 686 s. The same measure for `CC1=NS(=O)(=O)N(C)C=C1C(=O)OCc1noc(-c2ccccc2C)n1`: 987 s; for `COc1ccc(Cl)cc1NC(=O)Cn1ccc2ccc(-c3nnc(C)o3)cc21`: 898 s; for `COc1ccc(S(=O)(=O)NC2CCN(C(=O)C3CCN(C(C)=O)CC3)CC2)cc1`: 634 s. The figure for `CSc1ccc(-c2nc3ncccn3c2Nc2c(C)cccc2C)cc1` is 864 s.

These data come from the METLIN SMRT retention time set (Domingo-Almenara et al. 2019).
